Measured values reported in patent US20250179022A1, “COMPOUND USED AS TYK2 INHIBITOR, PREPARATION METHOD THEREFOR, AND PHARMACEUTICAL USE THEREOF” (SHANGHAI ZHIGEN PHARMACEUTICAL & TECHNOLOGY CO. LTD., priority 2022, published 2025).

Assay: In vivo pharmacokinetic experiment in rats (oral)
Set-up: species or system SD rats
Conditions: 5 mg/kg
Experimental: Experimental method: Healthy male SD rats were randomly grouped into 3 rats in each group and given the test compound orally. The rats were fasted for 12 h before the gavage experiment, and drank water freely, and were fed uniformly for 4 h after the administration of the compounds. Before (0 h) and 0.25, 0.5, 1.0, 2.0, 4.0, 6.0, 8.0 and 24 h after the administration of the test compounds, 0.2 mL of blood was collected from the jugular vein at the above set time points and placed in EDTA-K2 tubes, and the whole blood was collected and stored temporarily in an ice-water bath, and then centrifuged at 11,000 rpm for 5 min within 30 min, the plasma was separated, and frozen at −70° C. in a refrigerator for testing.

[2H]C([2H])([2H])NC(=O)c1nnc(NC(=O)C2CC2)cc1Nc1nc(N)c(Cl)cc1[S@@](C)(=O)=NC [Example 28]
AUC: 2644 ngh/mL
F: 103.8%
Cmax (male, SD, rat, plasma): 651 ng/mL
MRT (male, SD, rat, plasma): 3.54 h
half-life (male, SD, rat, plasma): 2.48 h
